The values below come from paper PMC5491917, “In vitro and in vivo anticancer studies of 2'-hydroxy chalcone derivatives exhibit apoptosis in colon cancer cells by HDAC inhibition and cell cycle arrest” (EXCLI Journal, 2017).

Bounds are passed on as bounds.

One assay concerns Vero cells. As to the kind of experiment: MTT cytotoxicity assay on Vero. It is filed as cell-based, African green monkey. To be noted: Chlorocebus sabaeus, 48 h exposure. As for the experimental part: (§1) Human colorectal carcinoma (HCT116) and African green monkey kidney epithelial cells (VERO) were procured from the National Centre for Cell Science, Pune, MH, India. The cells were maintained in Dulbecco's Modified Eagle's Medium (DMEM) (Sigma-Aldrich Co. LLC, ST. Louis, Mo, USA) supplemented with 10 % Fetal Bovine Serum (FBS) (HiMedia Laboratories, Mumbai, India) and 1 × Penicillin/Streptomycin at 37 °C in CO2 incubator (NU-5501 E/G, NuAire Inc., Plymoth, MN, USA) in humidified atmosphere of 5 % CO2 and 95 % air. The cells were maintained by routine sub-culturing in 25 cm^2 tissue culture flasks.
(§2) Cytotoxic potential of the test compounds were assessed using MTT assay (Kumar et al., 2016[9]). In brief, HCT116 and Vero cells were harvested from confluent flask and seeded (5 × 10^4 cells/well) in 96 well plates. After 24 h of incubation, the cells were exposed to different concentration of the test compounds for 48 h. Further, 50 µl of MTT reagent (HiMedia Laboratories, Mumbai, India) (2 mg/ml in sterile PBS) was added into each well after 48 h and incubated for 3 more h. The formazan crystals formed were solubilized using 100 % DMSO and the optical density was measured at 540 nm using micro plate reader (ELx800, BioTek Instruments Inc., Winooski, VT, USA).
A general note: Tetrazolium dyes change colour on reduction, which living cells bring about.
Broadly, the IC50 is the point on the concentration scale where inhibition reaches its midpoint. Molecule `CN(C)c1ccc(/C=C/C(=O)c2ccccc2O)cc1` [C4, 3-(4-Dimethylamino-phenyl)-1-(2-hydroxy-phenyl)-propenone] displayed an IC50 of more than 500 µM.

In the case of `O=C(O)c1ccc(C=CC(=O)c2c(O)cccc2O)cc1` [C6, 4-[3-(2,6-Dihydroxy-phenyl)-3-oxo-propenyl]-benzoic acid], the IC50 is more than 500 µM.

Another assay concerns histone deacetylase (HDAC) enzyme. As to the kind of experiment: Whole cell HDAC enzyme assay. Type of assay: cell-based, human. To be noted: HCT116 cells, 18 h treatment, mean ± SEM, triplicate; read-out: IC50 whole cell HDAC enzyme inhibition. As for the experimental part:
HCT116 cells were harvested and seeded in 96 well sterile, black well plates at 2 × 10^4 cells/well and incubated overnight. Further, the cells were treated with different concentration of the test compounds for a period of 18 h. Then, 15 mM Boc-Lys(Ac)-AMC substrate (Sigma Aldrich # SCP0168) was added and incubated for 1 h. The reaction was terminated by the addition of 50 µL of stop solution (trypsin 2 mg/ml, 1 % NP40, […]) in HDAC assay buffer (25 mM Tris-HCl (pH 8.0), 137 mM NaCl, 2.7 mM KCl, 1 mM MgCl2). The reaction was then allowed to proceed for 15 min at 37 °C after which, the fluorescence was measured at 360 nm excitation and 460 nm emission using fluorescence micro plate reader (FLx800, BioTek Instruments Inc., Winooski, VT, USA) (Reddy et al., 2015[18]).
For the molecule `CN(C)c1ccc(/C=C/C(=O)c2ccccc2O)cc1` [C4, 3-(4-Dimethylamino-phenyl)-1-(2-hydroxy-phenyl)-propenone], the IC50 was determined as 470 ± 11 µM.

`CN(C)c1ccc(/C=C/C(=O)c2ccc(O)cc2O)cc1` [C5]: the IC50 stood at 160 ± 15.5 µM.

As for `O=C(O)c1ccc(C=CC(=O)c2c(O)cccc2O)cc1` [C6, 4-[3-(2,6-Dihydroxy-phenyl)-3-oxo-propenyl]-benzoic acid], the IC50 stood at 826 ± 58.1 µM.

As to `O=C(CCCCCCC(=O)Nc1ccccc1)NO` [SAHA, reference compound], the IC50 worked out at 3.6 ± 0.2 µM.

The assay is the same for the next values; noted with them: HCT116 cells; read-out: IC50 inhibition of HDAC (unit inferred).
In the case of `CN(C)c1ccc(/C=C/C(=O)c2ccccc2O)cc1` [C4, 3-(4-Dimethylamino-phenyl)-1-(2-hydroxy-phenyl)-propenone], the IC50 was less than 500 µM.

Regarding `CN(C)c1ccc(/C=C/C(=O)c2ccc(O)cc2O)cc1` [C5], the IC50 was less than 500 µM.

For the next assay, the system named is HCT116 cells. As to the kind of experiment: MTT cytotoxicity assay on HCT116. Type of assay: cell-based. The conditions noted are these: Homo sapiens, HCT-116, 48 h, 48 h exposure, read-out: IC50 Value HCT116. The method, then:
as §1, §2
Regarding `CN(C)c1ccc(/C=C/C(=O)c2ccccc2O)cc1` [C4, 3-(4-Dimethylamino-phenyl)-1-(2-hydroxy-phenyl)-propenone], the IC50 was more than 500 µM.

Staying with this assay, now noted: Homo sapiens, HCT-116, 48 h exposure, read-out: IC50 Value HCT116.
Regarding `O=C(O)c1ccc(C=CC(=O)c2c(O)cccc2O)cc1` [C6, 4-[3-(2,6-Dihydroxy-phenyl)-3-oxo-propenyl]-benzoic acid], the IC50 was more than 500 µM.
